Results reported in patent publication US6858638B2, “Substituted indazoles, compositions containing them, method of production and use” (Aventis Pharma S.A., priority 2002, dated 2005).

Experiments:
Assay type in all cases: biochemical
[1] = target: T1, human FAK (Homo sapiens, UniProt Q05397); test: FAK autophosphorylation inhibition, time resolved fluorescence (HTRF) assay; conditions: for inhibition at 10 µM: read-out: FAK % inhib at 10 μM; for inhibition at 30 µM: 30 μM (values marked *), read-out: FAK % inhib at 30* μM
T1 construct: The complete cDNA of human FAK; made in house; host or cells: baculovirus expression system (vector pFastBac HTc)
T1 sequence (Q05397 whole entry): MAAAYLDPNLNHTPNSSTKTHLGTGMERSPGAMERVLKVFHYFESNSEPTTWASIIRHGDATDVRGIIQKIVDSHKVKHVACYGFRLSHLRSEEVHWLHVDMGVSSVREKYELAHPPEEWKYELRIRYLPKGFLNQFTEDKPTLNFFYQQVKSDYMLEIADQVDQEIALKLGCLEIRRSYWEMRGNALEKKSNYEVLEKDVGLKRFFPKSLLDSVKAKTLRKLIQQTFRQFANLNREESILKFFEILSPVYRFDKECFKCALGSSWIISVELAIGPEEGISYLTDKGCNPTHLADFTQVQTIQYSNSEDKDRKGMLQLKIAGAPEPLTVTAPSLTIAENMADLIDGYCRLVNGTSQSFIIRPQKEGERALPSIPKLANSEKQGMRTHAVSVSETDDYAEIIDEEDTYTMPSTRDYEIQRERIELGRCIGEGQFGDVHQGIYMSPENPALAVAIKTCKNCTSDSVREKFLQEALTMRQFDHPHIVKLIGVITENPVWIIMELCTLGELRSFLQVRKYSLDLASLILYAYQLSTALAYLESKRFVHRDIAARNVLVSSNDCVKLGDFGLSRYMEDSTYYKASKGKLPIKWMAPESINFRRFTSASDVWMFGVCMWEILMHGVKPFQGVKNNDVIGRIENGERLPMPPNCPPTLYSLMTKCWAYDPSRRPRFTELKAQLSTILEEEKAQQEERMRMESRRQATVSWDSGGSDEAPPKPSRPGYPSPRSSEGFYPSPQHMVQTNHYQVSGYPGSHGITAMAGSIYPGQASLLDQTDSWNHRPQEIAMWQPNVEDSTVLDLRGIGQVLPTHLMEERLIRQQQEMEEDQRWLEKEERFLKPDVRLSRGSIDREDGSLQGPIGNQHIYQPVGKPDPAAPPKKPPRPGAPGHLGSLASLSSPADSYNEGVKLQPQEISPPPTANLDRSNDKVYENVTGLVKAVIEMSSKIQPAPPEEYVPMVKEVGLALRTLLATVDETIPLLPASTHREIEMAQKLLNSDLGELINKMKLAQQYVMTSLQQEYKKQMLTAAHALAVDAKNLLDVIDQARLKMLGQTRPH
Outline: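 Autophosphorylation was detected by europium-cryptate anti-pTyr and XL665 anti-His energy transfer, percent inhibition from the 665/620 ratio relative to no-compound wells. Enzyme: His-FAK full length, 6.6 µg/ml, incubated 1 h at 37 °C, pH 7.2, 15 µM ATP.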

[2] = target: T2, Aurora2 kinase (Homo sapiens, UniProt O14965); test: Aurora2 kinase radioactivity scintillation assay using nickel chelate (NuMA substrate); conditions: 10 μM; for inhibition at 10 µM: read-out: Aurora2 % inhib at 10 μM
T2 construct: A complete recombinant Aurora2 enzyme; His tag (N); made in house; host or cells: E. coli
T2 sequence (O14965 1-403): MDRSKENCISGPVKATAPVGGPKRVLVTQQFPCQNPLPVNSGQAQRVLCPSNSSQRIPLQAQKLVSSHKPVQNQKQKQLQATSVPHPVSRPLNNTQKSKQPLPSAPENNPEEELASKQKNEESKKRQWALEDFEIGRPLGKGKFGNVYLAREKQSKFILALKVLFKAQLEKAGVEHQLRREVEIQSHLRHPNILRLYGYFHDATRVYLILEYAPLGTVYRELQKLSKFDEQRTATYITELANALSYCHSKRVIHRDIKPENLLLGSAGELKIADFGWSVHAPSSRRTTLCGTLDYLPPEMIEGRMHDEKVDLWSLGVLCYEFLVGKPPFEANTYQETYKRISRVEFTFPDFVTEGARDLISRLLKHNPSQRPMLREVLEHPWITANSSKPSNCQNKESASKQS
Outline: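 Read-out is 33P incorporation into His-NuMA (Q1687-H2101, 0.5 μM) captured on nickel chelate, after 30 min at 37 °C with 0.02 μM His-Aurora2 and 1 μM ATP. Expressed as percentage inhibition of uncompounded control activity, background subtracted.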

[3] = target: T3, human KDR enzyme (Homo sapiens, UniProt P35968); test: KDR substrate (PLCγ) phosphorylation, scintillation assay; conditions: 10 μM; read-out: KDR % inhib at 10 μM
T3 construct: The cytoplasmic domain of the human KDR enzyme; GST; made in house; host or cells: SF21 insect cells (baculovirus)
T3 sequence (P35968 786-1356 limits assumed): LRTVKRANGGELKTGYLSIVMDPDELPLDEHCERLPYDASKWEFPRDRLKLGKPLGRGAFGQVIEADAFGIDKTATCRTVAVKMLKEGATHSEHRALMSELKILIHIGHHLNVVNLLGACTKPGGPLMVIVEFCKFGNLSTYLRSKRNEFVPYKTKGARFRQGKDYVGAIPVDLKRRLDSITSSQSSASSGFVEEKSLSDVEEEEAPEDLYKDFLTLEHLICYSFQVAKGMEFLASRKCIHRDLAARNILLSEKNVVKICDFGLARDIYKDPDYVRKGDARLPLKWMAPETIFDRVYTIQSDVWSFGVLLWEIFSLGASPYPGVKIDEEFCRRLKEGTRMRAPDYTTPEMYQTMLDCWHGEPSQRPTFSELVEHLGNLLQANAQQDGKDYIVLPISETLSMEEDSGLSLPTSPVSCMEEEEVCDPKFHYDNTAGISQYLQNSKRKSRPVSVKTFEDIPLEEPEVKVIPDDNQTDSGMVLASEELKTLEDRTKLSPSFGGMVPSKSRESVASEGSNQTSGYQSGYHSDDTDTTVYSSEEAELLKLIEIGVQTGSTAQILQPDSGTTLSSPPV
Outline: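 Values are percent inhibition relative to the compound-free control, read by scintillation counting of 33P incorporation after EDTA stop. Baculovirus/SF21-expressed GST-KDR cytoplasmic domain (100 ng) acted for 1 h at 37 °C in pH 7.2 MOPS kinase buffer. The substrate was GST-PLCγ SH2-SH3 (2 μg), added with γ33P-ATP and 2 μM unlabeled ATP.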

[4] = 10 μM (values without asterisk)

Structure (SMILES)	inhibition at 10 µM [1, 4] [%]	inhibition at 10 µM [2] [%]	inhibition at 10 µM [3] [%]	inhibition at 30 µM [1] [%]	FAK % inhib at 10 μM ([1]; 10 μM (values without asterisk), 10 µM) [%]	Aurora2 % inhib at 10 μM [2] [%]
CS(=O)(=O)c1ccccc1S(=O)(=O)Nc1ccc2[nH]nc(N)c2c1 [Example 39, N-(3-Amino-1H-indazol-5-yl)-2-methylsulfonylbenzenesulfonamide]	96	81	20			
Cc1n[nH]c2ccc(NS(=O)(=O)c3cccc(F)c3)cc12 [Example 9, 3-Fluoro-N-(3-methyl-1H-indazol-5-yl)benzenesulfonamide]		61	18	68		
CS(=O)(=O)c1ccccc1S(=O)(=O)Nc1ccc2[nH]nc(-c3ccc(Cl)cc3)c2c1 [Example 30, N-[3-(4-Chlorophenyl)-1H-indazol-5-yl]-2-methylsulfonylbenzenesulfonamide]	88	100	85			
CS(=O)(=O)c1ccccc1S(=O)(=O)Nc1ccc2[nH]nc(-c3ccc[nH]3)c2c1 [Example 60, 2-Methylsulfonyl-N-[3-(1H-pyrrol-2-yl)-1H-indazol-5-yl]benzenesulfonamide]	99	100	64			
Nc1n[nH]c2ccc(NS(=O)(=O)c3c(Cl)cccc3Cl)cc12 [Example 41, N-(3-Amino-1H-indazol-5-yl)-2,6-dichlorobenzenesulfonamide]	71	90	36			
COC(=O)c1cccc(-c2n[nH]c3ccc(NS(=O)(=O)c4ccccc4S(C)(=O)=O)cc23)c1 [Example 55, Methyl 3-[5-(2-methylsulfonylbenzenesulfonamino)-1H-indazol-3-yl]benzoate]	98	94	51			
O=S(=O)(Nc1ccc2[nH]nc(Cl)c2c1)c1cccc(F)c1 [Example 3, N-(3-Chloro-1H-indazol-5-yl)-3-fluorobenzenesulfonamide]		46	22	71		
O=S(=O)(Nc1ccc2[nH]nc(-c3ccccc3)c2c1)c1ccc(Cl)c(Cl)c1 [Example 8, 3,4-Dichloro-N-(3-phenyl-1H-indazol-5-yl)benzenesulfonamide]		59	81	76		
Nc1n[nH]c2ccc(NS(=O)(=O)c3cccc(F)c3)cc12 [Example 26, N-(3-Amino-1H-indazol-5-yl)-3-fluorobenzenesulfonamide]	96	95	24			
CS(=O)(=O)c1ccccc1S(=O)(=O)Nc1ccc2[nH]nc(-c3ccco3)c2c1 [Example 53, N-(3-Furan-2-yl-1H-indazol-5-yl)-2-methylsulfonylbenzenesulfonamide]	96	91	42			
CS(=O)(=O)c1ccccc1S(=O)(=O)Nc1ccc2[nH]nc(-c3ccncc3)c2c1 [Example 54, 2-Methylsulfonyl-N-(3-pyridin-4-yl-1H-indazol-5-yl)benzenesulfonamide]	96	100	76			
CS(=O)(=O)c1ccccc1S(=O)(=O)Nc1ccc2[nH]ncc2c1 [Example 13, 2-Methylsulfonyl-N-(1H-indazol-5-yl)benzenesulfonamide]		76	0	83		
CS(=O)(=O)c1ccccc1S(=O)(=O)Nc1ccc2[nH]nc(NCc3ccccc3)c2c1 [Example 36, N-(3-Benzylamino-1H-indazol-5-yl)-2-methylsulfonylbenzenesulfonamide]	92	80	23			

The remaining lines, values ahead:

inhibition at 10 µM [1, 4] [%]	inhibition at 10 µM [2] [%]	inhibition at 10 µM [3] [%]	inhibition at 30 µM [1] [%]	FAK % inhib at 10 μM ([1]; 10 μM (values without asterisk), 10 µM) [%]	Aurora2 % inhib at 10 μM [2] [%]	Structure (SMILES)
94	44	74				O=S(=O)(Nc1ccc2[nH]nc(-c3ccccc3)c2c1)C1CCNCC1 [Example 100, N-(3-Phenyl-1H-indazol-5-yl)-piperidine-4-sulfonamide]
21	55	25				CS(=O)(=O)c1ccccc1S(=O)(=O)Nc1ccc2[nH]nc(Sc3ccccc3)c2c1 [Example 88, 2-Methylsulfonyl-N-(3-phenylsulfanyl-1H-indazol-5-yl)-benzenesulfonamide]
67	100	90				O=S(=O)(Nc1ccc2[nH]nc(-c3ccccc3)c2c1)c1ccccc1F [Example 134, 2-Fluoro-N-(3-phenyl-1H-indazol-5-yl)-benzenesulfonamide]
94	89	83				CS(=O)(=O)c1ccc(F)cc1S(=O)(=O)Nc1ccc2[nH]nc(-c3ccccc3)c2c1 [Example 93, 5-Fluoro-2-methylsulfonyl-N-(3-phenyl-1H-indazol-5-yl)-benzenesulfonamide]
		34		0	30	CC(=O)Nc1ccc(S(=O)(=O)Nc2ccc3[nH]nc(-c4ccccc4)c3c2)cc1 [Example 95, N-[4-(3-Phenyl-1H-indazol-5-ylsulfamoyl)phenyl]acetamide]
71	92	93				O=S(=O)(Nc1ccc2[nH]nc(-c3ccccc3)c2c1)c1ccc(F)c(F)c1 [Example 152, 3,4-Difluoro-N-(3-phenyl-1H-indazol-5-yl)-benzenesulfonamide]
92	92	85				CS(=O)(=O)c1ccccc1S(=O)(=O)Nc1ccc2[nH]nc(C#Cc3ccccc3)c2c1 [Example 89, 2-Methylsulfonyl-N-(3-phenylethynyl-1H-indazol-5-yl)-benzenesulfonamide]
66	100	91				O=S(=O)(Nc1ccc2[nH]nc(-c3ccccc3)c2c1)c1cccs1 [Example 110, N-(3-Phenyl-1H-indazol-5-yl)-thiophene-2-sulfonamide]
73	100	88				O=[N+]([O-])c1ccccc1S(=O)(=O)Nc1ccc2[nH]nc(-c3ccccc3)c2c1 [Example 113, 2-Nitro-N-(3-phenyl-1H-indazol-5-yl)benzenesulfonamide]
96	99	92				CS(=O)(=O)c1ccccc1S(=O)(=O)Nc1ccc2[nH]nc(/C=C/c3ccc(Cl)cc3)c2c1 [Example 76, N-{3-[(E)-2-(4-Chlorophenyl)vinyl]-1H-indazol-5-yl}-2-methylsulfonylbenzenesulfonamide]
99	99	95				CS(=O)(=O)c1ccccc1S(=O)(=O)Nc1ccc2[nH]nc(/C=C/c3ccc(F)cc3)c2c1 [Example 74, N-{3-[(E)-2-(4-Fluorophenyl)vinyl]-1H-indazol-5-yl}-2-methylsulfonylbenzenesulfonamide]
54	95	96				N#Cc1cccc(S(=O)(=O)Nc2ccc3[nH]nc(-c4ccccc4)c3c2)c1 [Example 154, 3-Cyano-N-(3-phenyl-1H-indazol-5-yl)-benzenesulfonamide]
98	100	93				CS(=O)(=O)c1ccccc1S(=O)(=O)Nc1ccc2[nH]nc(-c3nc4ccccc4[nH]3)c2c1 [Example 81, N-[3-(1H-Benzimidazol-2-yl)-1H-indazol-5-yl]-2-methylsulfonylbenzenesulfonamide]
56	99	94				COc1cccc(S(=O)(=O)Nc2ccc3[nH]nc(-c4ccccc4)c3c2)c1 [Example 156, 3-Methoxy-N-(3-phenyl-1H-indazol-5-yl)-benzenesulfonamide]
61	100	91				O=S(=O)(Nc1ccc2[nH]nc(-c3ccccc3)c2c1)c1ccccc1C(F)(F)F [Example 109, N-(3-Phenyl-1H-indazol-5-yl)-2-trifluoromethylbenzene-sulfonamide]
